According to ChEMBL document CHEMBL4811222, “Antitumor Activity of Asperphenin B by Induction of Apoptosis and Regulation of Glyceraldehyde-3-phosphate Dehydrogenase in Human Colorectal Cancer Cells” (J Nat Prod, 2021):
Activity calls are given as the source filed them. No cut-off for these calls is given here.

What was measured:
RKO [1] = test: Antitumor activity against human RKO cells implanted in ip dosed BALB/c nude mouse assessed as suppression of GAPDH expression in tumor lysates administered three times per week for 21 days by Western blotting analysis; format: functional, organism-based; conditions: Neoplasm, time 21.0 day
RKO [2] = test: Antitumor activity against human RKO cells implanted in BALB/c nude mouse assessed as inhibition of tumor growth at 4 mg/kg, ip administered three times per week for 21 days and measured every 3 to 4 days by electronic caliper method; format: functional; conditions: time 21.0 day
RKO [3] = test: Antiproliferative activity against human RKO cells assessed as inhibition of cell growth incubated for 72 hrs by SRB assay; format: functional, cell-based
RKO [4] = test: Antitumor activity against human RKO cells implanted in BALB/c nude mouse assessed as inhibition of tumor growth at 8 mg/kg, ip administered three times per week for 21 days and measured every 3 to 4 days by electronic caliper method; format: functional; conditions: time 21.0 day
HCT-116 = test: Antiproliferative activity against human HCT-116 cells assessed as inhibition of cell growth incubated for 72 hrs by SRB assay; format: functional, cell-based; conditions: HCT-116, 72 h
LS174T = test: Antiproliferative activity against human LS174T cells assessed as inhibition of cell growth incubated for 72 hrs by SRB assay; format: functional, cell-based
RKO [5] = test: Antitumor activity against human RKO cells implanted in BALB/c nude mouse assessed as suppression of Ki67 expression level in tumor lysates at 4 to 8 mg/kg, ip administered three times per week for 21 days by Western blotting analysis; format: functional, organism-based; conditions: Neoplasm, dose 4-8 mg/kg, time 21.0 day
CCD-841CoN = test: Antiproliferative activity against human CCD-841CoN cells assessed as inhibition of cell growth incubated for 72 hrs by SRB assay; format: cell-based
CCD-18Co = test: Antiproliferative activity against human CCD-18Co cells assessed as inhibition of cell growth incubated for 72 hrs by SRB assay; format: cell-based
SW480 = test: Antiproliferative activity against human SW480 cells assessed as inhibition of cell growth incubated for 72 hrs by SRB assay; format: functional, cell-based; conditions: SW480, 72 h
RKO [6] = test: Suppression of GAPDH protein expression in human RKO cells at 2.5 to 10 uM after 24 hrs by Western blotting analysis; format: functional, cell-based; conditions: dose 2.5-10 µM

SMILES	Activity (RKO [1])	TGI (RKO [2])	IC50 (RKO [3])	TGI (RKO [4])	IC50 (HCT-116)	IC50 (LS174T)	Activity (RKO [5])	IC50 (CCD-841CoN)	IC50 (CCD-18Co)	IC50 (SW480)	Activity (RKO [6])
CCCCCCCCC[C@@H](O)CC(=O)N[C@@H](CC(N)=O)C(=O)N[C@@H](CCC(N)=O)C(=O)N[C@@H](CC(C)C)C1=C(c2c(O)cccc2O)c2c(O)cc(C)cc2C1=O	inactive	inactive	> 50000 nM	inactive	> 50000 nM	> 50000 nM	inactive	> 50 µM	> 50 µM	> 50000 nM	inactive
COc1cc([C@@H]2c3cc4c(cc3[C@@H](O[C@@H]3O[C@@H]5CO[C@@H](C)O[C@H]5[C@H](O)[C@H]3O)[C@H]3COC(=O)[C@H]23)OCO4)cc(OC)c1O [ETOPOSIDE]			1960 nM		660 nM	480 nM		8.71 µM	18.4 µM	1110 nM	
